In PubChem BioAssay AID2060901 (Molecular Pharmacology Branch, DTP, NCI, 2025):
Each block holds one compound with its values, some of them ahead of it.

System: 422866-222-R5-J1-PDC complex spheroids viability
Assay: Anticancer human tumor 422866-222-R5-J1-PDC patient-derived pancreatic adenocarcinoma cell line growth inhibition [RAS]
Conditions: for viability, T/C: stronger effect = lower value; for IC50: curve of first compound
Source text: RAS pathway inhibitors in Combinations in Complex Spheroids
A high-throughput screen of multi-cell type tumor spheroids was designed to identify active combinations of RAS pathway inhibitors and targeted small molecules. Complex spheroids include a stromal component modeled by human endothelial cells (HUVEC) and fibroblasts modeled by human mesenchymal stem cells (MSCs). The concentration ranges selected for each drug and investigational agent were based upon clinically achievable concentrations if the clinical Cmax of the agent was known.
Compounds. The drugs and investigational agents: abemaciclib (NSC768073), cobimetinib (NSC768068), divarasib (GDC6063, NSC841802), docetaxel (NSC628503), GDC-1971 (RLY-1971, NSC841576), gemcitabine (NSC613327), inavolisib (NSC800729), ipatasertib (NSC767898), KB-0742 (NSC834161), MRTX-1133 (NSC836407), osimertinib (NSC779217), RMC-4630 (NSC839698), RMC-6236 (NSC851965), RMC-6291 (NSC852671), Ro-3306 (NSC812927), sapanisertib (NSC764658), SN-38 (NSC673596), staurosporine (NSC755774), SY5609 (NSC837396), and tovorafenib (DAY101, NSC766906), were obtained from the National Cancer Institute (NCI) Developmental Therapeutics Program Chemical Repository. The FDA-approved anticancer drug set is available from the NCI Developmental Therapeutics Program. […] The stock solutions were prepared in dimethyl sulfoxide (DMSO, Sigma-Aldrich, St. Louis, MO, cat. D2650) at 800-fold the tested concentration and stored at -70 degrees C prior to their use. All drugs and investigational agents were tested over a range starting from a high concentration at or near the clinical Cmax and decreasing in half-log increments. If the clinical Cmax for an agent had not been determined, the highest concentration tested was 10 microM.
Cell Culture. All cells were maintained in an incubator at 37 degrees C and 5% CO2 with 95% humidity. The PDC lines were cultured according to standard operating procedures established by the NCI PDMR. All PDCs were thawed and cultured in Matrigel-coated flasks prepared with a working solution of 1X Ham's F-12 nutrient mix, without supplementation (Invitrogen, Waltham, MA, cat. 11765054), 100 U/mL penicillin-streptomycin (Invitrogen, cat. 15140122), and 2.5% Matrigel (Corning Inc., Corning, NY, cat. 354248) for the first three passages. The 362531-283-R-J2-PDC and 782815-120-R-J1-PDC lines were cultured in 6C/Colon 1B media, which includes advanced DMEM/F-12 (Thermo Fisher Scientific, cat. 12634028), 10 mM HEPES (Thermo Fisher Scientific, cat. 15630080), 1X GlutaMAX supplement (Thermo Fisher Scientific, cat. 35050061), 0.1 mg/mL primocin (InvivoGen, San Diego, CA, cat. ant-pm-2), 10% defined fetal bovine serum, heat inactivated (HyClone Laboratories Inc., Logan, UT, cat. SH30070.03HI), 50% L-WRN conditioned media (ATCC, cat. CRL-3276), 1.25 mM N-Acetyl-L-cysteine (Sigma-Aldrich, cat. A9165), 10 mM nicotinamide (Sigma-Aldrich, cat. N0636), 1X B-27 supplement (Thermo Fisher Scientific, cat. 17504044), 1X N-2 supplement (Thermo Fisher Scientific, cat. 17502048), 50 ng/mL human EGF (Thermo Fisher Scientific, cat. PHG0311), and 10 microM Y-27632 dihydrochloride (Tocris Bioscience, cat. 1254). The K12877-001-R-J1-PDC line was cultured in 6I media, which includes all 6C/Colon 1B media plus 10 ng/mL human FGF-10 (PeproTech, cat. 100-26), 1 ng/mL human FGF-2 (PeproTech, cat. 100-18B), 1 µM prostaglandin E2 (Tocris Bioscience, cat. 2296), […] hydrocortisone (Sigma-Aldrich, cat. H4001), and […] bovine insulin (Sigma-Aldrich, cat. I6634). The K86415-001-R-J1-PDC line was cultured in 6D media, which includes all 6C/Colon 1B media components minus the L-WRN conditioned media. The 485176-168-R4-J1-PDC was cultured in PANC media, which includes all 6C/Colon 1B media plus 100 ng/mL human FGF-10 (PeproTech, cat. 100-26), 500 nM SB-431542 (Selleckchem, cat. S1067), and 10 nM gastrin (Tocris Bioscience, cat. 3006). […]
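Note: spheroids exposed to compounds for 7 days.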
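Throughout, for viability, T/C: 100% = DMSO vehicle control viability.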

SMILES: Cc1nc(N2CCC3(CC2)COC(C)C3N)c(CO)nc1Sc1ccnc(N)c1Cl (configuration not stated)
- viability, T/C (compound 0.1 µM): 65% [middle of 4 runs]
- viability, T/C (compound 0.316 µM): 51% [middle of 4 runs]
- viability, T/C (compound 1 µM): 52.8% [middle of 4 runs]
- viability, T/C (compound 3.16 µM): 41.1% [middle of 4 runs]
- viability, T/C (compound 10 µM): 43.5% [middle of 4 runs]

- IC50 (second compound 0.000949 µM): < 3.16 nM
- IC50 (second compound 0.003 µM): < 3.16 nM
- IC50 (second compound 0.00949 µM): < 3.16 nM
- IC50 (second compound 0.03 µM): < 3.16 nM
- IC50 (second compound 0.0949 µM): < 3.16 nM
- IC50 (second compound 0.3 µM): < 3.16 nM
SMILES: O=C(c1ccc(F)c(F)c1Nc1ccc(I)cc1F)N1CC(O)([C@@H]2CCCCN2)C1 + CCn1c(-c2cc(N3CCN(C)CC3)cnc2C(C)OC)c2c3cc(ccc31)-c1csc(n1)CC(NC(=O)C1CC1C)C(=O)N1CCCC(N1)C(=O)OCC(C)(C)C2
- viability, T/C (second compound 0.000949 µM, first compound 0.00316 µM): 30.9%
- viability, T/C (second compound 0.000949 µM, first compound 0.01 µM): 27.3%
- viability, T/C (second compound 0.000949 µM, first compound 0.0316 µM): 21.8%
- viability, T/C (second compound 0.000949 µM, first compound 0.1 µM): 20.4%
- viability, T/C (second compound 0.000949 µM, first compound 0.316 µM): 15%
- viability, T/C (second compound 0.000949 µM, first compound 1 µM): 14.4%
- viability, T/C (second compound 0.003 µM, first compound 0.00316 µM): 22.9%
- viability, T/C (second compound 0.003 µM, first compound 0.01 µM): 19.1%
- viability, T/C (second compound 0.003 µM, first compound 0.0316 µM): 16.2%
- viability, T/C (second compound 0.003 µM, first compound 0.1 µM): 13.3%
- viability, T/C (second compound 0.003 µM, first compound 0.316 µM): 13.4%
- viability, T/C (second compound 0.003 µM, first compound 1 µM): 15.1%
- viability, T/C (second compound 0.00949 µM, first compound 0.00316 µM): 16%
- viability, T/C (second compound 0.00949 µM, first compound 0.01 µM): 14.8%
- viability, T/C (second compound 0.00949 µM, first compound 0.0316 µM): 14.5%
- viability, T/C (second compound 0.00949 µM, first compound 0.1 µM): 11.9%
- viability, T/C (second compound 0.00949 µM, first compound 0.316 µM): 11.9%
- viability, T/C (second compound 0.00949 µM, first compound 1 µM): 13.6%
- viability, T/C (second compound 0.03 µM, first compound 0.00316 µM): 14.3%
- viability, T/C (second compound 0.03 µM, first compound 0.01 µM): 13.4%
- viability, T/C (second compound 0.03 µM, first compound 0.0316 µM): 13.2%
- viability, T/C (second compound 0.03 µM, first compound 0.1 µM): 13.8%
- viability, T/C (second compound 0.03 µM, first compound 0.316 µM): 13.9%
- viability, T/C (second compound 0.03 µM, first compound 1 µM): 14.9%
- viability, T/C (second compound 0.0949 µM, first compound 0.00316 µM): 15.2%
- viability, T/C (second compound 0.0949 µM, first compound 0.01 µM): 16%
- viability, T/C (second compound 0.0949 µM, first compound 0.0316 µM): 13.4%
- viability, T/C (second compound 0.0949 µM, first compound 0.1 µM): 13.8%
- viability, T/C (second compound 0.0949 µM, first compound 0.316 µM): 14.5%
- viability, T/C (second compound 0.0949 µM, first compound 1 µM): 15.3%
- viability, T/C (second compound 0.3 µM, first compound 0.00316 µM): 16.7%
- viability, T/C (second compound 0.3 µM, first compound 0.01 µM): 14.9%
- viability, T/C (second compound 0.3 µM, first compound 0.0316 µM): 15%
- viability, T/C (second compound 0.3 µM, first compound 0.1 µM): 15.1%
- viability, T/C (second compound 0.3 µM, first compound 0.316 µM): 15.7%
- viability, T/C (second compound 0.3 µM, first compound 1 µM): 15.6%
